This note sets out measurements from US20240327393A1 (SIRONAX LTD., priority 2021, published 2024).

SMILES strings stand for the structures.

In the first assay the test system is HT-1080 (ATCC, CCL-121) cells. Nature of the assay: HT-1080 cell viability assay with ferroptosis inducer RSL3 (Cell Titer-Glo). It counts as cell-based. To be noted: HT-1080 cells treated with RSL3; 3-fold, 10-point dilution, 1.1 μM highest concentration; Table 2; read-out: EC50 (nM), ferroptosis inhibitory activity. The method in brief: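 EC50 was derived by sigmoidal dose-response regression of CellTiter-Glo luminescence viability, expressed relative to untreated wells. Compounds were tested in a ten-point, threefold dilution series (highest 1.1 μM) in the presence of the ferroptosis inducer RSL3. HT-1080 cells had been seeded at 6000 per well and grown overnight first.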
(ATP-based viability assays read luminescence as a measure of living cells.)
For `CC1CN(c2ccc(Nc3ccc4c(c3)OC(C)C(=O)N4)cc2)CC(C)O1` (centres unmarked) [Compound 144, 7-((4-(2,6-dimethylmorpholino)phenyl)amino)-2-methyl-2H-benzo[b][1,4]oxazin-3(4H)-one], the EC50 (as a rule, the concentration giving half of the maximal effect) is 0.1 to 100 nM.
As to `Cc1cc(Nc2ccc3c(c2)OCC(=O)N3)ccc1N1CC(C)OC(C)C1` (centres unmarked) [Compound 145, 7-((4-(2,6-dimethylmorpholino)-3-methylphenyl)amino)-2H-benzo[b][1,4]oxazin-3(4H)-one], the EC50 was 0.1 to 100 nM.

Still in this assay, the particulars now being: Homo sapiens; HT-1080 cells treated with RSL3; 3-fold, 10-point dilution, 1.1 μM highest concentration; Table 2; read-out: EC50 (nM), ferroptosis inhibitory activity.
As for `Cc1cc(N2CC(C)OC(C)C2)ccc1Nc1cc(F)c2c(c1)OCC(=O)N2C` (centres unmarked) [Compound 141, ((4-(2,6-dimethylmorpholino)-2-methylphenyl)amino)-5-fluoro-4-methyl-2H-benzo[b][1,4]oxazin-3(4H)-one], the EC50 was in the range of 0.1 to 100 nM.
As to `Cc1cc(Nc2ccc3c(c2)OCC(=O)N3C)cnc1N1CCC(C(F)(F)F)CC1` [Compound 142, 4-methyl-7-((5-methyl-6-(4-(trifluoromethyl)piperidin-1-yl)pyridin-3-yl)amino)-2H-benzo[b][1,4]oxazin-3(4H)-one], the EC50 lay within 0.1 to 100 nM.
On the same count and under the same terms, in the case of `Cc1cc(Nc2ccc3c(c2)OCC(=O)N3C)cnc1N1CC(C)OC(C)C1` (centres unmarked) [Compound 143, 7-((6-(2,6-dimethylmorpholino)-5-methylpyridin-3-yl)amino)-4-methyl-2H-benzo[b][1,4]oxazin-3(4H)-one] it was 0.1 to 100 nM; in that of `Cc1cc(Nc2ccc3c(c2)OCC(=O)N3)ccc1N1CC2CCC(C1)O2` [Compound 146, 7-((4-(8-oxa-3-azabicyclo[3.2.1]octan-3-yl)-3-methylphenyl)amino)-2H-benzo[b][1,4]oxazin-3(4H)-one], 0.1 to 100 nM; in that of `CCC1CN(c2ccc(Nc3ccc4c(c3)OCC(=O)N4C)c(C)c2)CCO1` (centres unmarked) [Compound 147, 7-((4-(2-ethylmorpholino)-2-methylphenyl)amino)-4-methyl-2H-benzo[b][1,4]oxazin-3(4H)-one], 0.1 to 100 nM.
For `CC1CN(c2ccc(Nc3ccc4c(c3)OCC(=O)N4)cc2)CCO1` (centres unmarked) [Compound 148, 7-((4-(2-methylmorpholino)phenyl)amino)-2H-benzo[b][1,4]oxazin-3(4H)-one], the EC50 was 0.1 to 100 nM.
The same measure, in the same setting: for `CC1CN(c2ccc(Nc3ccc4c(c3)OCC(=O)N4C)cc2)CCO1` (centres unmarked) [Compound 149, 4-methyl-7-((4-(2-methylmorpholino)phenyl)amino)-2H-benzo[b][1,4]oxazin-3(4H)-one] the value was 0.1 to 100 nM.
With `Cc1cc(Nc2ccc3c(c2)OCC(=O)N3)cnc1N1CCC(C(F)(F)F)CC1` [Compound 150, 7-((5-methyl-6-(4-(trifluoromethyl)piperidin-1-yl)pyridin-3-yl)amino)-2H-benzo[b][1,4]oxazin-3(4H)-one], the EC50 is 0.1 to 100 nM.
On to `Cc1cc(Nc2ccc3c(c2)OCC(=O)N3)cnc1N1C[C@@H](C)O[C@@H](C)C1` [Compound 151, 7-((6-(2,6-dimethylmorpholino)-5-methylpyridin-3-yl)amino)-2H-benzo[b][1,4]oxazin-3(4H)-one], for which the EC50 was in the range of 0.1 to 100 nM.
With `CCC1Oc2cc(Nc3ccc(N4CC(C)OC(C)C4)cc3)ccc2NC1=O` (centres unmarked) [Compound 154, 7-((4-(2,6-dimethylmorpholino)phenyl)amino)-2-ethyl-2H-benzo[b][1,4]oxazin-3(4H)-one], the EC50 was 0.1 to 100 nM.
On the same count and under the same terms, in the case of `Cc1cc(Nc2ccc3c(c2)OCC(=O)N3C)cc(C)c1N1CCC(C(F)(F)F)CC1` [Compound 155, 7-((3,5-dimethyl-4-(4-(trifluoromethyl)piperidin-1-yl)phenyl)amino)-4-methyl-2H-benzo[b][1,4]oxazin-3(4H)-one] it was 0.1 to 100 nM; in that of `CN1C(=O)COc2cc(Nc3ccc(N4CCC(C(F)(F)F)CC4)cc3)c(F)cc21` [Compound 156, 6-fluoro-4-methyl-7-((4-(4-(trifluoromethyl)piperidin-1-yl)phenyl)amino)-2H-benzo[b][1,4]oxazin-3(4H)-one], 0.1 to 100 nM; in that of `Cc1cc2c(cc1Nc1ccc(N3CCC(C(F)(F)F)CC3)cc1)OCC(=O)N2C` [Compound 157], 0.1 to 100 nM.
For the molecule `O=C1CCc2cc(Nc3ccc(N4CCC(C(F)(F)F)CC4)cc3)ccc2N1` [Compound 158, 6-((4-(4-(trifluoromethyl)piperidin-1-yl)phenyl)amino)-3,4-dihydroquinolin-2(1H)-one], the EC50 lay within 0.1 to 100 nM.
On to `CC1CN(c2c(F)cc(Nc3ccc4c(c3)OCC(=O)N4)cc2F)CC(C)O1` (centres unmarked) [Compound 159, 7-((4-(2,6-dimethylmorpholino)-3,5-difluorophenyl)amino)-2H-benzo[b][1,4]oxazin-3(4H)-one], for which the EC50 lay in the range of 0.1 to 100 nM.
For the molecule `CN1C(=O)COc2cc(Nc3cc(F)c(N4CCC(O)(C(F)(F)F)CC4)c(F)c3)ccc21` [Compound 160, 7-((3,5-difluoro-4-(4-hydroxy-4-(trifluoromethyl)piperidin-1-yl)phenyl)amino)-4-methyl-2H-benzo[b][1,4]oxazin-3(4H)-one], the EC50 was 0.1 to 100 nM.
For the molecule `COC1(C(F)(F)F)CCN(c2c(F)cc(Nc3ccc4c(c3)OCC(=O)N4C)cc2F)CC1` [Compound 161], the EC50 lay in the range of 0.1 to 100 nM.
Same read-out and setting: in the case of `COC1(C(F)(F)F)CCN(c2ccc(Nc3ccc4c(c3)OCC(=O)N4)cc2)CC1` [Compound 162, 7-((4-(4-methoxy-4-(trifluoromethyl)piperidin-1-yl)phenyl)amino)-2H-benzo[b][1,4]oxazin-3(4H)-one] it was 0.1 to 100 nM; in that of `CN1CCN(CC(=O)N2Cc3ccc(Nc4ccc(N5CCCCC5)cc4)cc3C2)CC1` [Compound 163, 2-(4-methylpiperazin-1-yl)-1-(5-((4-(piperidin-1-yl)phenyl)amino)isoindolin-2-yl)ethan-1-one], 0.1 to 100 nM.
`CN1CCN(CC(=O)N2Cc3ccc(Nc4ccc(N5CCC(C(F)(F)F)CC5)c(F)c4)cc3C2)CC1` [Compound 164]: the EC50 was 0.1 to 100 nM.
Still for that read-out and setting: for `FC1(F)CCN(c2ccc(Nc3ccc4c(c3)CNC4)cc2)CC1` [Compound 165, N-(4-(4,4-difluoropiperidin-1-yl)phenyl)isoindolin-5-amine] the value was 0.1 to 100 nM; for `CC(=O)N1Cc2ccc(Nc3ccc(N4CCC(F)(F)CC4)cc3)cc2C1` [Compound 166, 1-(5-((4-(4,4-difluoropiperidin-1-yl)phenyl)amino)isoindolin-2-yl) ethan-1-one], 0.1 to 100 nM.
As for `CCN1Cc2ccc(Nc3ccc(N4CCC(F)(F)CC4)cc3)cc2C1` [Compound 167, N-(4-(4,4-difluoropiperidin-1-yl)phenyl)-2-ethylisoindolin-5-amine], the EC50 is 0.1 to 100 nM.
As for `CN1Cc2ccc(Nc3ccc(N4CCC(F)(F)CC4)cc3)cc2C1=O` [Compound 168, 6-((4-(4,4-difluoropiperidin-1-yl)phenyl)amino)-2-methylisoindolin-1-one], the EC50 is 0.1 to 100 nM.
Same read-out and setting: for `CN1Cc2ccc(Nc3ccc(N4CCC(C(F)(F)F)CC4)c(F)c3)cc2C1=O` [Compound 169, 6-((3-fluoro-4-(4-(trifluoromethyl)piperidin-1-yl)phenyl)amino)-2-methylisoindolin-1-one] the value was 0.1 to 100 nM; for `CC1CCN(c2ccc(Nc3ccc4c(c3)C(=O)N(C)C4)cc2)CC1` [Compound 170, 2-methyl-6-((4-(4-methylpiperidin-1-yl)phenyl)amino)isoindolin-1-one], 0.1 to 100 nM; for `CN1Cc2ccc(Nc3ccc(N4CCC(C(F)(F)F)CC4)cc3)cc2C1=O` [Compound 171, 2-methyl-6-((4-(4-(trifluoromethyl)piperidin-1-yl)phenyl)amino) isoindolin-1-one], 0.1 to 100 nM.
